Measured values as given in patent US9364455B2, “Combination of a prostaglandin receptor agonist and an MC1R receptor agonist for the treatment and/or prevention of pigmentation disorders” (GALDERMA RESEARCH & DEVELOPMENT, priority 2011, dated 2016).

Test system: tail skin of SKH2 mice
Assay: Propigmenting activity by topical application on the tail of SKH2 mice (clinical pigmentation score, luminance by colorimeter)
Format: in vivo
Conditions: 5 days per week for 57 days, 0.01% travoprost, MC1R agonist A at 7%, B at 8%, compared with carrier group (combinations also with 0.01% travoprost alone)
From the text: In mice, melanocytes are not present in the epidermis of the areas covered with hair and are mainly present in the hair follicles. The tail skin of SKH2 mice is pigmented, which is of particular interest for evaluating the effect of topical agents on skin pigmentation. The pigmentation modifications induced by these topical compounds can be quantified by various means, for instance the clinical score of the pigmentation and the measurement of the tail color using a colorimeter. The evaluation of the propigmenting activity of 0.01% travoprost alone or in combination with MC1R receptor agonists: compound A at 7% or compound B at 8%, is carried out by topical application on the tail of SKH2 mice for 57 days. The treatment is carried out 5 days per week for 57 days. 20 μl of the test product diluted in the carrier 145 are applied to the tail. In the case of the combinations, 20 μl of the MC1R agonist solution are applied after the treatment with 20 μl of the 0.01% travoprost solution. The clinical score of the animals is recorded once a week before irradiation; the pigmentation is evaluated by virtue of a score on a scale of 0 to 4. […]

CC(C)OC(=O)CCC/C=C\C[C@@H]1[C@@H](/C=C/[C@@H](O)COc2cccc(C(F)(F)F)c2)[C@H](O)C[C@@H]1O [travoprost]
clinical score for pigmentation (natural pigmentation of the tail skin): moderately increases the natural pigmentation of the tail skin as early as day 36
